# Test results from US20040259806A1 (priority 2001, published 2004).
# Legend:
# [1] = test system: tuberculosis; test: SCV-07 therapy of a patient with infiltrative tuberculosis (Example 1); format: in vivo, human; details: after SCV-07 0.1 mg daily for 5 days
# Method: A patient, was admitted to the hospital with infiltrative tuberculosis with destruction and dissemination in the upper lobe of the left lung. […] Lymphopenia (18%) and increased ESR (25 mm/h) were present in the blood count. […] Aggressive traditional antituberculosis therapy was carried out including isoniazid at 600 mg/day intravenously, pyrazinamid at 1500 mg/day per os, rifampicin at 450 mg/day per os.
# The traditional therapy was unsuccessful, and SCV-07 treatment was undertaken. Following a course of SCV-07 therapy at 0.1 mg daily for 5 days, bacterial intoxication resolved, destructive cavities closed and the sputum culture test was negative. CD3+ lymphocytes increased and tolerance to other drugs improved.
# [2] = test system: tuberculosis; test: SCV-07 in patients with destructive lung tuberculosis, 20 treated versus 15 control (Example 3); format: in vivo, human
# Method: Patients with destructive lung tuberculosis, untreated previously or after inadequate antituberculosis therapy were treated. All patients received antituberculosis therapy consisting of intravenous isoniazid and four to five other drugs and the condition of each patient was examined daily. Major diagnostic criteria included physical examination, chest X-ray, sputum bacterioscopy and culture, broncho alveolar lavage examination. Also included were blood counts performed in all patients prior to SCV-07 therapy and then once per week. Blood biochemical tests including blood fibrinogen, β-lipoproteins, urea, creatinine, C-reactive protein levels, activity of alanine and asparagine transaminases were performed once per month and more frequently if needed. Sputum cultures were taken prior to therapy and one and three months after SCV-07 therapy, and serologic assays including indirect hemaglutination tests.
# Bilateral lung injury was found in 11 patients. […] In all cases, the pathological process was destructive. […] Immature cavities were diagnosed in 3 cases. Multiple cavities, X-ray markers and exudative inflammation predominated in all patients.
# Females slightly predominated the experimental group (55%). Patients ranged in age from 20 to 40 years of age. All patients had symptoms of toxemia, including 4 patients with severe symptoms.
# Immunological studies included counting the percentage of peripheral blood lymphocyte subsets such as CD3+, CD4+, CD8+, CD20+, CD25+ and CD95+ using monoclonal antibodies. The CD4/CD8 index was calculated as well. Elevation of CD3+ and CD4+ cell levels were apparent in 7 out of 14 patients immediately after SCV-07 therapy.
# Phytohemagglutinin (PHA) and purified protein derivate (PPD)-induced lymphocytes blasttransformation were also investigated.
# [3] = test system: peritoneal macrophages; test: Phagocytosis and killing of Saccharomyces cerevisiae by peritoneal macrophages of treated infected mice; format: in vivo
# Method: In order to study phagocytosis, peritoneal macrophages were plated at a concentration of 10^6 cells per Petri dish and media including 10^7 Saccharomyces cerevisiae cells, opsonized by mice serum was added. Results were evaluated using the Mann-Whitney test. Phagocytic activity was calculated after determination of percentage of macrophages involved in phagocytes. The phagocytic index was determined by calculating the average number of yeast phagocytosed per one cell. Killing activity was resolved by the number of yeast digested by macrophages after 1.5 h of incubation. Finally, the killing index was determined as follows: [formula]
# [4] = test system: IL-2; test: IL-2 production by Con A stimulated spleen cells (CTLL-2 assay); format: in vivo, mice
# Method: In RPMI-1640, spleen cells were diluted to a concentration of 10^7/ml with 10% fetal calf serum, 2 mM L-glutamine and 80 ìg/ml gentamycin. A 100 ìl cell suspension was added to each well of a 96-well culture plate and cytokine production was induced by Con A at a final concentration of 2.5 ìg/ml. A control well included RPMI-1640. For 24 hours, cells were incubated at 37° C. and humidified in 5% CO2. Following incubation, […] of supernatant was removed from each well and stored at −70° C.
# In order to determine the IL-2 concentration in cell culture supernatants, the CTLL-2 IL-2 dependent cell line was used. CTLL-IL-2 cells were washed twice in RPMI-1640 and counted with a Goriaev hemocytometer. Supernatants were diluted in 96-well culture plates at dilutions of 1:5, 1:15, 1:45 and 1:135 in a volume of 100 il. IL-2 standard dilutions were also prepared. Cells were diluted to 2×10^5/ml in RPMI-1640 with 10% inactivated fetal calf serum, 2 mM L-glutamine, 80 ìg/ml gentamycin. The 100 ìl suspension was added to each well of the culture plate and incubated for 48 h at 37° C. in 5% CO2 humidity. Ten ìl of 5 i Ci/ml ^3H-thymidine was added to each well 16 h before the end of incubation. Following incubation, the cells were harvested on filters through the use of a semi-automated harvester and samples were counted in a liquid scintillation counter.
compound,measurement,setting,value
"N[C@H](CCC(=O)N[C@@H](Cc1c[nH]c2ccccc12)C(=O)O)C(=O)O [SCV-07, γ-D-glutamyl-L-tryptophan]",CD3+ lymphocytes,[1],increased
same,bacterial intoxication,[1],resolved
same,destructive cavities,[1],closed
same,Immune complexes in circulation,"[1]; from 84 U, normal level 22-66 U",69 U
same,sputum culture test,[1]; traditional therapy was unsuccessful,negative
same,IL-2 production after stimulation with the mitogens PHA and PPD,[2]; SCV-07 treated patients,greatly increased
same,"Cavity closure, patients","[2]; after 3 months of observation, 13.3% in the control group",25%
same,"Negative sputum culture tests, patients","[2]; after 3 months, 33.3% in the control group",65%
same,"Negative sputum culture tests, patients","[2]; after a month of observation, 13.3% in the control group",30%
same,"Serum bilirubin, creatinine, urea, alanine and asparagine transaminase",[2]; during SCV-07 therapy,stabilized
same,Hematological signs of tuberculosis activity including white blood cell counts and ESR,[2]; experimental group,mostly diminished
same,body temperature,[2]; experimental group,decreased in all cases
same,Moist rates resolved,[2]; experimental group (20 patients),16 patients
same,"T-cell blasttransformation responses (PHA, PPD)",[2]; experimental group compared with control group,markedly increased
same,chest X-ray and tomogram,[2]; following two months of SCV-07 therapy,resolution of the infiltrate-like shadow
same,CD4+/CD8+ ratio,[2]; immediately after SCV-07 therapy,increased
same,"Serum biochemical inflammation markers such as fibrinogen, β-lipoprotein, CRP",[2]; in one month,decreased
same,"Elevation of CD3+ and CD4+ cell levels, patients","[2]; out of 14 patients, immediately after SCV-07 therapy",7 patients
same,Toxemia symptoms substantially resolved,"[2]; within a month, experimental group (20 patients), with antituberculosis therapy",half of the patients
same,macrophage killing,"[3]; 24 days after treatment, Groups 6 and 7 (1.0 ìg/kg, 10 injections and 0.1 ìg/kg ip)",significantly improved
same,phagocytic activity,"[3]; after 4 days, Group 7 (SCV-07 0.1 ìg/kg ip) compared to Group 3 (isoniazid control), p≦0.05, 64.2% in uninfected mice",38.8%
same,phagocytic index,"[3]; after 4 days, SCV-07 treatment",normalized
same,killing,"[3]; after 4 days, SCV-07 versus control, p≦0.05",244.4
same,killing and the killing index,"[3]; after 17 days, Group 6 (1.0 ìg/kg ip, 10 injections)",significantly increased
same,phagocytic activity,"[3]; after 17 days, Group 6 (1.0 ìg/kg ip, 10 injections) versus Group 3 (isoniazid control)",60.4%
same,phagocytic index,"[3]; after 17 days, Group 6 (1.0 ìg/kg ip, 10 injections) versus Group 3, p=0.05",6.88 U
same,killing,"[3]; ten days after therapy, Group 5 (1 ìg/kg, ip) compared to the control",significantly increased
same,ingestion and killing,"[3]; ten days after therapy, Groups 8 and 9 (0.01 ìg/kg ip and 1 ìg/kg po)",tendency toward decreased
same,IL-2 production,"[4]; 4 days after therapy, Group 7 (0.1 ìg/kg ip) compared to Group 3 (isoniazid control), Con A stimulated spleen cells",41.6±5.6 U/ml
same,IL-2 level,"[4]; 24 days after therapy, Group 6 (1 ìg/kg ip, 10 injections) and Group 7 (0.1 ìg/kg ip)",did not differ from uninfected mice
same,IL-2 production,"[4]; all treated groups, all time points after therapy",increase
